Experimental data reported in ChEMBL document CHEMBL2073865 (Drug Metab Dispos, 2004).
Counter-ions that a name gives are not always drawn.

Assays:
Format in all cases: functional, cell-based
[1] = target: T1, ATP-dependent translocase ABCB1 (Homo sapiens, UniProt P08183); experiment: TP_TRANSPORTER: transepithelial transport of erythromycin in the presence of Indoxyl sulfate at 1mM in MDR1-expressing MDCK cells; conditions: dog, 1000 µM
[2] = target: T1, ATP-dependent translocase ABCB1; experiment: TP_TRANSPORTER: transepithelial transport of erythromycin in the presence of 3-Carboxy-4-methyl-5-propyl-2-furanpropanoic acid at 500uM and 1mM in MDR1-expressing MDCK cells; conditions: dog
[3] = target: T1, ATP-dependent translocase ABCB1; experiment: TP_TRANSPORTER: transepithelial transport of erythromycin in the presence of Hippurate at 2mM in MDR1-expressing MDCK cells; conditions: dog, 2000 µM

T1 sequence (P08183 whole entry): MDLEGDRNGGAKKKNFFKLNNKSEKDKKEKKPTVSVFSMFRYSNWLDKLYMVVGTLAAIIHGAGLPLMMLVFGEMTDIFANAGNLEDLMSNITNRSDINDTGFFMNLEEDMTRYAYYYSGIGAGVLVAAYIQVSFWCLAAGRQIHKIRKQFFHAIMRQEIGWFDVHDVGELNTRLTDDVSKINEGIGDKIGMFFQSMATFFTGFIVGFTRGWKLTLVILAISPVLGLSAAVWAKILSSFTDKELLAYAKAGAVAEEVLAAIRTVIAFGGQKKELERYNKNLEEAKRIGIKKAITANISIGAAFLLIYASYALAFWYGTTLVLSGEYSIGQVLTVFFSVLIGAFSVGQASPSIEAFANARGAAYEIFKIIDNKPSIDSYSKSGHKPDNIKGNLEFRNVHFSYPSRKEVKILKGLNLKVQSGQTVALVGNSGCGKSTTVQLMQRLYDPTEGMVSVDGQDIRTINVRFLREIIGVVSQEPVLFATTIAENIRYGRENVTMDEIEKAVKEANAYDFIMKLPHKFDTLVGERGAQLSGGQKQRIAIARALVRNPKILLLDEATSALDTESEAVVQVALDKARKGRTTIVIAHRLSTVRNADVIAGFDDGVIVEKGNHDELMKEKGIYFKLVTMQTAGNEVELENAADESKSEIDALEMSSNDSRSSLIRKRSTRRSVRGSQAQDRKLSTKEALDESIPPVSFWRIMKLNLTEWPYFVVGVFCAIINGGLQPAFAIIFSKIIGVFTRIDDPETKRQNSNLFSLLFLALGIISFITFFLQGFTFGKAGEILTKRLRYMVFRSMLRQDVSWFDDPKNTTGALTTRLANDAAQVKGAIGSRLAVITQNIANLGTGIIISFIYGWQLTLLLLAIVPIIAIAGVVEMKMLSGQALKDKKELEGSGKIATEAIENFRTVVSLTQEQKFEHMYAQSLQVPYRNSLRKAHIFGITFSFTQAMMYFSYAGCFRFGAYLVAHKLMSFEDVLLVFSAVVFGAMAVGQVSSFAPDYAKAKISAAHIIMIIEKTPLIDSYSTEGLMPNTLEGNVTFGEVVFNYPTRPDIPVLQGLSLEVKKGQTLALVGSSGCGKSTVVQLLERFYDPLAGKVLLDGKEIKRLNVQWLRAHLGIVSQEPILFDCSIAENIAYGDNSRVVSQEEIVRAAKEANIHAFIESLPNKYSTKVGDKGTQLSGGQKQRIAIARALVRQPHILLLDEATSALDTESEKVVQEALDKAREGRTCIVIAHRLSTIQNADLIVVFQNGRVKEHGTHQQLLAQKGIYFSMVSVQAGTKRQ

## O=S(=O)(O)Oc1c[nH]c2ccccc12 [INDOXYL SULFATE]
[1]
  Activity: is not an inhibitor [-]

## CCCc1oc(CCC(=O)O)c(C(=O)O)c1C
[2]
  Activity: is not an inhibitor [-]

## O=C(O)CNC(=O)c1ccccc1 [HIPPURIC ACID]
[3]
  Activity: is not an inhibitor [-]
